The inhibition is the share of the control response that was lost under treatment. The low end stands for little suppression, the high end for strong suppression. By IC50 is commonly meant the midpoint of a concentration-inhibition curve. A high value points to a need for much substance.

The values that follow come from the Kinase Knowledgebase extract (Sharma et al. 2016).

Experiment [1] deals with MAPK14 (human) (UniProt Q16539). Briefly: Inhibition of LPS Stimulated TNF Production by U937 Cells. Conditions: for inhibition: concentration not given here.
Sequence of MAPK14 (human) (Q16539 whole entry, looked up): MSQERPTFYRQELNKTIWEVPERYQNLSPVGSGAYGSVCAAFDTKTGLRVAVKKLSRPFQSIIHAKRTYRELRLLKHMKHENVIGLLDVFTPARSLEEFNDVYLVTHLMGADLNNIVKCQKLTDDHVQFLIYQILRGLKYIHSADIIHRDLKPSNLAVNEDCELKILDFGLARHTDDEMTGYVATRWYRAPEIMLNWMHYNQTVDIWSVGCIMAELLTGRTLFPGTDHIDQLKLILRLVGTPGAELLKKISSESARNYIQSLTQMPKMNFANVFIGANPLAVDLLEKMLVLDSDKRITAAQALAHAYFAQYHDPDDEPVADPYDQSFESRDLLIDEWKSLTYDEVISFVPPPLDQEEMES
Experiment [2] shares this target. Description: Inhibition of MAPK14 Kinase Activity by PHAS-I Assay. Conditions: for inhibition: concentration not given here.

Some results are limits rather than exact numbers.

As to `O=[N+]([O-])c1ccc(S(=O)(=O)NCc2[nH]nc(-c3ccc(F)cc3)c2-c2ccncc2)cc1`, the inhibition against MAPK14 (human) [1] was 2%; against MAPK14 (human) [2] it was 47%.

`Cc1ccc(NC(=O)Cn2nc(-c3ccc(F)cc3)c(-c3ccncc3)c2C)cc1`: at MAPK14 (human) [1], the half-maximal inhibitory concentration (IC50) is more than 10000 nM. In addition, the inhibition against MAPK14 (human) [2] amounted to 85%. Take `CCc1ccccc1NC(=O)NCCc1[nH]nc(-c2ccc(F)cc2)c1-c1ccncc1`: the inhibition against MAPK14 (human) [1] worked out at 22%; against MAPK14 (human) [2] it was 79%. For `O=C(NCCc1[nH]nc(-c2ccc(F)cc2)c1-c1ccncc1)Nc1ccc(-c2ccccc2)cc1`, in that order: 26% and 35%. For `O=C(NCCc1[nH]nc(-c2ccc(F)cc2)c1-c1ccncc1)Nc1cccc2ccccc12`, in that order: 39% and 83%. For `CCNC(=O)NCCc1[nH]nc(-c2ccc(F)cc2)c1-c1ccncc1`, in that order: 65% and 67%.

On to `Cc1c(-c2ccncc2)c(-c2ccc(F)cc2)nn1CC(=O)N(C)CCN1CCOCC1`, for which the inhibition on MAPK14 (human) [1] was determined as 28%; at MAPK14 (human) [2], 32%.

Take `O=C(NCCc1[nH]nc(-c2ccc(F)cc2)c1-c1ccncc1)c1ccccn1`: the inhibition at MAPK14 (human) [1] amounted to 34%; on MAPK14 (human) [2], 52%.

As to `CCN(CC)CCN(Cc1ccc(Cl)cc1)C(=O)Cn1nc(-c2ccc(F)cc2)c(-c2ccncc2)c1C`, the inhibition on MAPK14 (human) [1] is 10%; at MAPK14 (human) [2], 55%.

With `CC(Oc1ccccc1)C(=O)NCCCc1[nH]nc(-c2ccc(F)cc2)c1-c1ccncc1` (centres undefined), the figures for the inhibition against MAPK14 (human) [1] and against MAPK14 (human) [2] were 60% and 83%, respectively. For `O=C(NCCc1[nH]nc(-c2ccc(F)cc2)c1-c1ccncc1)Nc1ccccc1OC(F)(F)F`, in that order: 48% and 66%. For `O=S(=O)(NCCCc1[nH]nc(-c2ccc(F)cc2)c1-c1ccncc1)c1ccc(F)cc1`, in that order: 62% and 78%. As for `Cc1c(-c2ccncc2)c(-c2ccc(F)cc2)nn1CC(=O)Nc1ccccc1OC(F)(F)F`, on MAPK14 (human) [1], the IC50 is more than 10000 nM. This molecule also yielded an inhibition at MAPK14 (human) [2] of 91%. Consider `COc1ccc(OC)c(NC(=O)NCc2[nH]nc(-c3ccc(F)cc3)c2-c2ccncc2)c1`, for which the inhibition amounted to 40% against MAPK14 (human) [1] and 39% at MAPK14 (human) [2]. On to `O=C(NCCc1[nH]nc(-c2ccc(F)cc2)c1-c1ccncc1)Nc1ccc(Oc2ccccc2)cc1`, for which the inhibition at MAPK14 (human) [1] turned out to be 24%; against MAPK14 (human) [2] it was 63%.

In the case of `CC(=O)O[C@H](C)C(=O)NCCCc1[nH]nc(-c2ccc(F)cc2)c1-c1ccncc1`, the 50% inhibitory concentration (IC50) against MAPK14 (human) [1] was found to be 570 nM. This molecule also showed an inhibition against MAPK14 (human) [2] of 82%. Take `O=C(NCCCc1[nH]nc(-c2ccc(F)cc2)c1-c1ccncc1)c1cnc2ccccc2n1`: the inhibition against MAPK14 (human) [2] is 68%. Still for that read-out and setting: as for `Cc1ccc(S(=O)(=O)NCCCc2[nH]nc(-c3ccc(F)cc3)c2-c2ccncc2)cc1`, the figure is 68%; as for `Cc1c(-c2ccncc2)c(-c2ccc(F)cc2)nn1CC(=O)N(CCc1ccccc1)CCc1ccccn1`, 43%.

In turn, `O=C(NCc1[nH]nc(-c2ccc(F)cc2)c1-c1ccncc1)c1cccc2ccccc12` displayed an inhibition against MAPK14 (human) [2] of 91%. The same measure, in the same setting: as for `CNC(=O)NCCCc1[nH]nc(-c2ccc(F)cc2)c1-c1ccncc1`, the figure is 84%; as for `COCC(=O)NCCCc1[nH]nc(-c2ccc(F)cc2)c1-c1ccncc1`, 78%; as for `COc1ccc(S(=O)(=O)NCCCc2[nH]nc(-c3ccc(F)cc3)c2-c2ccncc2)cc1OC`, 74%. Regarding `CC(=O)N[C@@H](C)c1[nH]nc(-c2ccc(F)cc2)c1-c1ccncc1`, at MAPK14 (human) [2], the IC50 worked out at 460 nM. Regarding `COC(=O)[C@@H](Cc1cn(C)cn1)NC(=O)Cn1nc(-c2ccc(F)cc2)c(-c2ccncc2)c1C`, the inhibition at MAPK14 (human) [2] stood at 19%. Molecule `O=C(NCCCc1[nH]nc(-c2ccc(F)cc2)c1-c1ccncc1)NCc1ccccc1` yielded an inhibition at MAPK14 (human) [2] of 82%. Take `CCCc1n[nH]c(-c2cccc([N+](=O)[O-])c2)c1-c1ccncc1`: the IC50 on MAPK14 (human) [2] was 12100 nM. On to `Cc1c(-c2ccncc2)c(-c2ccc(F)cc2)nn1CC(=O)N(CCC#N)CC1CCCO1` (centres undefined), for which the inhibition against MAPK14 (human) [2] was 58%.

Take `COc1cccc(NC(=O)NCCc2[nH]nc(-c3ccc(F)cc3)c2-c2ccncc2)c1`: at MAPK14 (human) [2], the inhibition worked out at 68%.

Molecule `Cc1c(-c2ccncc2)c(-c2ccc(F)cc2)nn1CC(=O)Nc1ccccc1Cl` had an inhibition at MAPK14 (human) [2] of 90%. The same measure, in the same setting: next, `Cc1c(-c2ccncc2)c(-c2ccc(F)cc2)nn1CC(=O)Nc1cc(F)cc(F)c1`: 75%; `Cc1c(-c2ccncc2)c(-c2ccc(F)cc2)nn1CC(=O)Nc1ccc(OCCOc2ccccc2)cc1`: 75%; `COC(=O)C(Cc1ccc([N+](=O)[O-])cc1)NC(=O)Cn1nc(-c2ccc(F)cc2)c(-c2ccncc2)c1C` (centres undefined): 75%. The same measure, in the same setting: next, `CCCCCCOc1ccc(NC(=O)Cn2nc(-c3ccc(F)cc3)c(-c3ccncc3)c2C)cc1`: 80%; `Cc1c(-c2ccncc2)c(-c2ccc(F)cc2)nn1CC(=O)NCC(=O)OC(C)(C)C`: 34%. On MAPK14 (human) [2], `CC(C)COC(=O)NCCc1[nH]nc(-c2ccc(F)cc2)c1-c1ccncc1` yielded an inhibition of 75%. Same read-out and setting: next, `Cc1c(-c2ccncc2)c(-c2ccc(F)cc2)nn1CC(=O)NC1CCSc2ccccc21` (centres undefined): 76%.

As to `COC(=O)[C@H](COCc1ccccc1)NC(=O)Cn1nc(-c2ccc(F)cc2)c(-c2ccncc2)c1C`, at MAPK14 (human) [2], the inhibition turned out to be 76%. Same read-out and setting: next, `Cc1ccc(C)c(C(=O)c2ccccc2NC(=O)Cn2nc(-c3ccc(F)cc3)c(-c3ccncc3)c2C)c1`: 84%. Still for that read-out and setting: next, `CC(=O)N1CCN(C(=O)Cn2nc(-c3ccc(F)cc3)c(-c3ccncc3)c2C)CC1`: 81%; `CC(C)C(=O)NCCc1[nH]nc(-c2ccc(F)cc2)c1-c1ccncc1`: 75%.

`N#CCNc1[nH]nc(-c2ccc(F)cc2)c1-c1ccncc1` returned an IC50 at MAPK14 (human) [2] of 17 nM. This lies in the double-digit nanomolar range. On to `CC[C@H](C)[C@H](NC(=O)Cn1nc(-c2ccc(F)cc2)c(-c2ccncc2)c1C)C(=O)OC`, for which, at MAPK14 (human) [2], the inhibition amounted to 38%.

Take `Cc1c(-c2ccncc2)c(-c2ccc(F)cc2)nn1CC(=O)Nc1ccccc1`: the inhibition against MAPK14 (human) [2] was 85%.

In the case of `O=C(NCCCc1[nH]nc(-c2ccc(F)cc2)c1-c1ccncc1)C1CC1`, the inhibition against MAPK14 (human) [2] came to 77%. Molecule `COc1cccc(C(=O)N[C@@H](C)c2[nH]nc(-c3ccc(F)cc3)c2-c2ccncc2)c1` showed an IC50 on MAPK14 (human) [2] of 1370 nM.

`COc1ccccc1C(=O)NCCCc1[nH]nc(-c2ccc(F)cc2)c1-c1ccncc1` returned an inhibition on MAPK14 (human) [2] of 68%. Still for that read-out and setting: as for `Cc1c(-c2ccncc2)c(-c2ccc(F)cc2)nn1CC(=O)NC1CCCCC1C1CCCCC1` (centres undefined), the figure is 45%. Still for that read-out and setting: next, `O=C(NCCCc1[nH]nc(-c2ccc(F)cc2)c1-c1ccncc1)c1ccc(I)cc1`: 66%.

Molecule `CC1CCCCN1CCCNc1cc(-c2c[nH]nc2-c2ccc(F)cc2)ccn1` (centres undefined) had an IC50 against MAPK14 (human) [2] of 530 nM. Turning to `Cc1cccc(C)c1NC(=O)NCCCc1[nH]nc(-c2ccc(F)cc2)c1-c1ccncc1`, the inhibition at MAPK14 (human) [2] came out at 88%.

As for `Cc1cccc(C)c1NC(=O)NCCc1[nH]nc(-c2ccc(F)cc2)c1-c1ccncc1`, at MAPK14 (human) [2], the inhibition came out at 56%.

The molecule `COCCN(C)C(=O)Cn1nc(-c2ccc(F)cc2)c(-c2ccncc2)c1C` returned an inhibition against MAPK14 (human) [2] of 35%.

On to `Cc1c(-c2ccncc2)c(-c2ccc(F)cc2)nn1CC(=O)Nc1cc(C(F)(F)F)cc(C(F)(F)F)c1`, for which, at MAPK14 (human) [2], the inhibition stood at 79%. The same measure, in the same setting: next, `CN(C)C(=O)NCCCc1[nH]nc(-c2ccc(F)cc2)c1-c1ccncc1`: 90%. For the molecule `O=C(N[C@H](Cc1ccccc1)c1[nH]nc(-c2ccc(F)cc2)c1-c1ccncc1)c1cnc2ccccc2n1`, the IC50 at MAPK14 (human) [2] was 38100 nM. Molecule `CCN(CC)CC(C)NC(=O)Cn1nc(-c2ccc(F)cc2)c(-c2ccncc2)c1C` (centres undefined) displayed an inhibition against MAPK14 (human) [2] of 46%. Same read-out and setting: as for `CCOC(=O)CC(C)NC(=O)Cn1nc(-c2ccc(F)cc2)c(-c2ccncc2)c1C` (centres undefined), the figure is 43%. The same measure, in the same setting: as for `CCCC(CCC)NC(=O)Cn1nc(-c2ccc(F)cc2)c(-c2ccncc2)c1C`, the figure is 77%. The same measure, in the same setting: next, `CCN(CC)CCN(CCN(CC)CC)C(=O)Cn1nc(-c2ccc(F)cc2)c(-c2ccncc2)c1C`: 47%. As to `Cc1c(-c2ccncc2)c(-c2ccc(F)cc2)nn1CC(=O)NC1CCN(Cc2ccccc2)CC1`, the inhibition against MAPK14 (human) [2] stood at 70%. On the same count and under the same terms, as for `CS(=O)(=O)NCCCc1[nH]nc(-c2ccc(F)cc2)c1-c1ccncc1`, the figure is 84%. The molecule `CC(C)(N)Cc1[nH]nc(-c2ccc(F)cc2)c1-c1ccncc1` gave a 50% inhibitory concentration (IC50) against MAPK14 (human) [2] of 110 nM. In other words, the sub-micromolar range.

As to `O=C(Nc1ccccc1F)N[C@H](Cc1ccccc1)c1[nH]nc(-c2ccc(F)cc2)c1-c1ccncc1`, the concentration for half-maximal inhibition (IC50) against MAPK14 (human) [2] is 21000 nM. The molecule `CSc1ccccc1NC(=O)Cn1nc(-c2ccc(F)cc2)c(-c2ccncc2)c1C` displayed an inhibition against MAPK14 (human) [2] of 82%. Same read-out and setting: next, `Cc1cccc(NC(=O)Cn2nc(-c3ccc(F)cc3)c(-c3ccncc3)c2C)c1`: 86%; `Cc1c(-c2ccncc2)c(-c2ccc(F)cc2)nn1CC(=O)Nc1ccccc1F`: 86%.

`CCCCC(C)NC(=O)Cn1nc(-c2ccc(F)cc2)c(-c2ccncc2)c1C` (centres undefined): on MAPK14 (human) [2], the inhibition amounted to 75%. On the same count and under the same terms, next, `Cc1c(-c2ccncc2)c(-c2ccc(F)cc2)nn1CC(=O)N(C)CCc1ccccc1`: 32%. `COc1ccc(NC(=O)NCCCc2[nH]nc(-c3ccc(F)cc3)c2-c2ccncc2)c(OC)c1`: the inhibition on MAPK14 (human) [2] amounted to 83%. On the same count and under the same terms, as for `Cc1c(-c2ccncc2)c(-c2ccc(F)cc2)nn1CC(=O)NC1CCC(C(C)(C)C)CC1` (centres undefined), the figure is 38%; as for `O=S(=O)(NCc1[nH]nc(-c2ccc(F)cc2)c1-c1ccncc1)c1cc(Br)c(Br)s1`, 77%; as for `Cc1c(-c2ccncc2)c(-c2ccc(F)cc2)nn1CC(=O)N1CCSC1`, 63%. `C[C@@H](NC(=O)NCc1[nH]nc(-c2ccc(F)cc2)c1-c1ccncc1)c1ccccc1` gave a half-maximal inhibitory concentration (IC50) at MAPK14 (human) [2] of 910 nM. As to `CC(C)(C)C(=O)NCCCc1[nH]nc(-c2ccc(F)cc2)c1-c1ccncc1`, the inhibition against MAPK14 (human) [2] came out at 87%. Regarding `COc1ccc2nc(NC(=O)Cn3nc(-c4ccc(F)cc4)c(-c4ccncc4)c3C)sc2c1`, the inhibition at MAPK14 (human) [2] turned out to be 86%. Same read-out and setting: next, `CCCCCCCOc1ccc(NC(=O)Cn2nc(-c3ccc(F)cc3)c(-c3ccncc3)c2C)cc1`: 89%. For the molecule `COc1ccccc1C(=O)N1CCC(c2[nH]nc(-c3ccc(F)cc3)c2-c2ccncc2)CC1`, the IC50 against MAPK14 (human) [2] is less than 100 nM.
